According to publication PMC10213791 (Acta Pharmaceutica Sinica. B, 2022):
pIC50, pKd: −log10 of the molar value.

Experiments:
[1] = biological target: T1, eukaryotic translation elongation factor 1 alpha 1 (eEF1A1) (Homo sapiens, UniProt P68104); test: SPR; type: binding
T1 sequence (P68104 2-462): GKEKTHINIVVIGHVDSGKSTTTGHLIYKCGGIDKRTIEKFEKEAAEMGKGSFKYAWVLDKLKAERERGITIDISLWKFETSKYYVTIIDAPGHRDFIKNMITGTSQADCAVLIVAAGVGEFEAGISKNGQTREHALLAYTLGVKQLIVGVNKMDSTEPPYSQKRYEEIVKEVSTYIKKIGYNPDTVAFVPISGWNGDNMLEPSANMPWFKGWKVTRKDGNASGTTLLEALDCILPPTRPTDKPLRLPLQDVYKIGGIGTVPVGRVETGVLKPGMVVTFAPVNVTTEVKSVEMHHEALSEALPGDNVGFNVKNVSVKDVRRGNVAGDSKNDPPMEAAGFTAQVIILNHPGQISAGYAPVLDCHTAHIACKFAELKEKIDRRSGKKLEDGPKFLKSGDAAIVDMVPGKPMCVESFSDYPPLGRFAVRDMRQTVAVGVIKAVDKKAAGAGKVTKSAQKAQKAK

peroxiredoxin 3 (PRDX3) = biological target: T2, peroxiredoxin 3 (PRDX3) (Homo sapiens, UniProt P30048); test: SPR; type: binding
T2 sequence (P30048 62-256): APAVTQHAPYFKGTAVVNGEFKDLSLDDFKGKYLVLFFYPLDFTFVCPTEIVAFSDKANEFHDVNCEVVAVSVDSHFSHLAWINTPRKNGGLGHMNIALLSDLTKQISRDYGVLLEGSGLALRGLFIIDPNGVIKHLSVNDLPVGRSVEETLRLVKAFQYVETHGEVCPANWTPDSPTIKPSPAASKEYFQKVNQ

[2] = biological target: T3, vacuolar protein sorting 4 homolog B (VPS4B) (Homo sapiens, UniProt O75351); test: SPR; type: binding
T3 sequence (O75351 1-444): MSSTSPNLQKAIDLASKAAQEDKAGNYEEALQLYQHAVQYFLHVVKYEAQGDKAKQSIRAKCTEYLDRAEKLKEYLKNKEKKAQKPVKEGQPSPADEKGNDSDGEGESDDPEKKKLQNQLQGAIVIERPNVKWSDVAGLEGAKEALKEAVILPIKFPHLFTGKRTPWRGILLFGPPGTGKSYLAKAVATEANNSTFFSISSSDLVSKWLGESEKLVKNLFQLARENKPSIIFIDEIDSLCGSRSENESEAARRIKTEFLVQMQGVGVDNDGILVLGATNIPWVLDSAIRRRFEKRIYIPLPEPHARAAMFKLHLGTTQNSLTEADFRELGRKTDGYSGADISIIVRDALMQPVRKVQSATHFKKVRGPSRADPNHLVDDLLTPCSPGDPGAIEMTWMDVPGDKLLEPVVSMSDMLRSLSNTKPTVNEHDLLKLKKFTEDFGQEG

EIF2AK2 = EIF2AK2 (Homo sapiens, UniProt P19525); test: biochemical
Sequence of EIF2AK2 (P19525 2-551): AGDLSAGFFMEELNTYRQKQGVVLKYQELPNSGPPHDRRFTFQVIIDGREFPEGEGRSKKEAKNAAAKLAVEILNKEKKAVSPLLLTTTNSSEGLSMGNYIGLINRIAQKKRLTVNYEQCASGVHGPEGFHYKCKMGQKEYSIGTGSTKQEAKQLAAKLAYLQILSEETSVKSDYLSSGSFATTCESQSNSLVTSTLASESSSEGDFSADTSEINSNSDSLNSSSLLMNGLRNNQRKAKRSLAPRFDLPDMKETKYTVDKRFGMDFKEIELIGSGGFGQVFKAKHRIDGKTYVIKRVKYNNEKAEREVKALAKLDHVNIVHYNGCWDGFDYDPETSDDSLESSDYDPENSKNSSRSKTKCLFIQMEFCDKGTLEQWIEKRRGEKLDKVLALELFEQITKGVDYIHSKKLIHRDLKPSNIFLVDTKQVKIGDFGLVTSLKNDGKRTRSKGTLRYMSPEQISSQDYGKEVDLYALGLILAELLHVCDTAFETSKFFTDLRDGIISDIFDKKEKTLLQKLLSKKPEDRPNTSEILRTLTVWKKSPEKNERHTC

SMILES: COc1ccc2cc3[n+](cc2c1OC)CCc1cc2c(cc1-3)OCO2 [BBR, berberine]
- pKd [1]: 4.87
- pKd (peroxiredoxin 3 (PRDX3)): 4.63
- pKd [2]: 4.77

SMILES: O=C1Nc2ccc3ncsc3c2/C1=C/c1c[nH]cn1 [C16]
- pIC50 (EIF2AK2): 6.00
